{
  "source": "patent US8158389B2",
  "about": "“Products and methods for in vivo secretion of monatin” (priority 2005, dated 2012)",
  "key": {"[1]": {"system": "E. coli BL21 DE3 aspC/proA on pET30", "experiment": "Monatin excretion with glucose or malate as carbon source", "type": "cell-based, Escherichia coli", "procedure": "For inoculum, E. coli BL21 DE3 aspC/proA on pET30 was grown overnight in LB medium with 50 μg/mL kanamycin at 37° C. and 250 rpm. For the experimental treatments, Trp-1 medium, as described in Example 6 (Zeman, et al. Folia Microbiol. 35:200-204, (1990)), and 50 μg/mL kanamycin was used. Malate and glucose were 4 g/L initially for their respective treatments. For treatment flasks, 2.2 v/v % of inoculum was added to 50 mL medium volume in 250 mL baffled shake flasks. For glucose treatments, induction of the monatin operon was initiated at 0.8 OD600 nm. For malate treatments, induction was at 0.25 OD. At induction, 0.5 mM IPTG, 0.5 mM pyridoxine hydrochloride, and 0.2 mL of Balch's vitamins (Balch, W. E., et al., “Methanogens: reevaluation of a unique biological group,” Microbiol. Rev. 43:260-296 (1979)) were added. Temperature was reduced to 30° C. at induction."}, "[2]": {"system": "C. glutamicum ATCC 13032 transformed with aspCProA pEKEX-2", "experiment": "Monatin efflux with biotin and ampicillin treatments", "type": "cell-based, Corynebacterium glutamicum", "conditions": "Ampicillin 0 μg/mL", "procedure": "C. glutamicum ATCC 13032 strains transformed with aspCProA pEKEX-2 were grown overnight in LB medium supplemented with 50 μg/mL kanamycin incubated at 30° C. and shaking at 250 rpm. […] Microbiol 151:342-347, (1989). […] The pH was adjusted to 7.0.\nAdditions of 1.0 g L-tryptophan and 5 g/L sodium pyruvate and ampicillin (either 0 or 10 μg/ml) were made 3 hours following induction."}, "[3]": {"system": "E. coli MG1655 ΔAcrAB 6-16::aspCproAproNde", "experiment": "AcrAB k.o. validation: growth (OD 600 nm) with novobiocin / sodium decanoate, knockout strain", "type": "cell-based, Escherichia coli", "procedure": "(§1) Single chloramphenicol-resistant colonies were purified by restreaking on appropriate selective media and single colonies were tested by PCR as previously described for the BW25113 knockout strains, to verify the presence of the emrB and acrAB knockouts. The effects of the emrB and acrAB knockouts on the EmrAB and AcrAB transporter systems respectively were determined by assessing the phenotype of the transport mutants using appropriate antibiotics and comparison to wild type control microorganisms as shown in Table 3.1 and Table 3.2 below."}, "[4]": {"system": "E. coli MG1655::aspCproApProNde (control)", "experiment": "AcrAB k.o. validation: growth (OD 600 nm) with novobiocin / sodium decanoate, control strain", "type": "cell-based, Escherichia coli", "procedure": "as §1"}, "[5]": {"system": "C. glutamicum ATCC 13032 transformed with aspCProApEKEX-2", "procedure": "C. glutamicum ATCC 13032 strains transformed with aspCProApEKEX-2 were grown overnight in LB medium supplemented with 25 μg/mL kanamycin incubated at 37° C. and shaking at 250 rpm. For the experimental treatment flasks, 100 mL of Krämer's A medium was used in each shake flask. Hoischen, C. and Krämer, R., “Evidence for an efflux carrier system involved in the secretion of glutamate by Corynebacterium glutamicum,” Arch. Microbiol 151:342-347, (1989). Krämer's A medium contained (per liter): 5 g (NH4)2SO4, 5 g urea, 2 g KH2PO4, 1.53 g K2HPO4, 0.249 g MgSO4.7H2O, 50 g glucose, 0.01 g FeSO4.7H2O, 0.01 g MnSO4.H2O, 0.01 g CaCl2.2H2O, 0.03 mg ZnSO4.7H2O, 0.1 mg H3BO3, 0.07 mg […], 0.01 mg NiCl2.2H2O, 0.03 mg CuCl2.2H2O, 0.1 mg as Mo^+6 from (NH4)6Mo7O24-4H2O and 1 μg biotin. The pH was adjusted to 7.0.\nFor treatments, 4.2 v/v % of inoculum was added to 100 mL medium volume in 500 mL baffled shake flasks. Conditions for the treatments included 37° C. throughout the experiment and 250 rpm agitation. Sodium salicylate (0, 1 mM or 2 mM) was added 1 hour following inoculation. At 0.45-0.6 OD600 nm induction of the monatin operon genes was initiated. IPTG at 0.5 mM was used for induction, and additions at the time of induction included 0.5 mM pyridoxine hydrochloride and 0.04 mM pyridoxal-5′-phosphate (“PLP”). Additions of 1 g L-tryptophan, 5 g/L sodium pyruvate and 10 μg/mL ampicillin were made 3 hours following induction. Samples for monatin and dry cell weight determination were taken at 23.5 and 48 hours.\nMonatin analysis was conducted as described in Example 13."}, "[6]": {"conditions": "40 or 80 ppm novobiocin, no sodium decanoate"}, "[7]": {"conditions": "novobiocin 40 ppm, sodium decanoate 0 mM"}, "[8]": {"conditions": "novobiocin 40 ppm, sodium decanoate 2.5 mM"}, "[9]": {"conditions": "novobiocin 80 ppm, sodium decanoate 0 mM"}, "[10]": {"conditions": "novobiocin 80 ppm, sodium decanoate 2.5 mM"}},
  "note": "Several values for one entry are separate records, joined by “and”; a condition that tells them apart may be missing. Identical values can stand only once. Like-named read-outs stand apart in the source and are kept apart here. Marks after values point to notes of the source that are not given here.",
  "data": [
    {"molecule": "O=C(O)CC(O)C(=O)O", "note": "(stereo not drawn) [malate]", "values": [
      {"measurement": "Monatin/dcw, 24 hour average", "setting": "[1]; carbon source 4 g/L initially, 24 hours post induction", "result": 7.72, "unit": "mg/g"},
      {"measurement": "Monatin/dcw, 24 hours", "setting": "[1]; carbon source 4 g/L initially, 24 hours post induction, single flasks", "result": "7.19 mg/g and 8.25 mg/g"},
      {"measurement": "higher monatin transported per unit biomass", "setting": "[1]; malate as primary carbon source vs glucose", "result": 23, "unit": "%"}
    ]},
    {"molecule": "O=C(O)CCCC[C@@H]1SC[C@@H]2NC(=O)N[C@@H]21", "note": "[Biotin, biotin]", "values": [
      {"measurement": "Monatin/dry cell weight, 48 hours", "setting": "[2]; Biotin 1 μg/L", "result": 4.5, "unit": "mg/g"},
      {"measurement": "Monatin/dry cell weight, 24 hours", "setting": "[2]; Biotin 1 μg/L, n = 1", "result": "1.9* mg/g"},
      {"measurement": "Monatin/dry cell weight, 24 hours", "setting": "[2]; Biotin 200 μg/L", "result": 0.9, "unit": "mg/g"},
      {"measurement": "Monatin/dry cell weight, 48 hours", "setting": "[2]; Biotin 200 μg/L", "result": 1.7, "unit": "mg/g"}
    ]},
    {"molecule": "CO[C@@H]1[C@@H](OC(N)=O)[C@@H](O)[C@H](Oc2ccc3c(O)c(NC(=O)c4ccc(O)c(CC=C(C)C)c4)c(=O)oc3c2C)OC1(C)C", "note": "[novobiocin]", "values": [
      {"measurement": "growth", "setting": "[3]; [6]", "result": "growth is completely inhibited"},
      {"measurement": "OD 600 nm at 19 hours", "setting": "[3]; [7]", "result": 0.007},
      {"measurement": "OD 600 nm at 19 hours", "setting": "[3]; [8]", "result": 0.008},
      {"measurement": "OD 600 nm at 19 hours", "setting": "[3]; [9]", "result": 0.006},
      {"measurement": "OD 600 nm at 19 hours", "setting": "[3]; [10]", "result": 0.008},
      {"measurement": "growth", "setting": "[4]; 0, 40 or 80 ppm novobiocin, in the presence of sodium decanoate", "result": "grew to similar optical densities"},
      {"measurement": "growth", "setting": "[4]; [6]", "result": "only slight inhibition of growth"},
      {"measurement": "OD 600 nm at 19 hours", "setting": "[4]; [7]", "result": 1.407},
      {"measurement": "OD 600 nm at 19 hours", "setting": "[4]; [8]", "result": 1.395},
      {"measurement": "OD 600 nm at 19 hours", "setting": "[4]; [9]", "result": 0.793},
      {"measurement": "OD 600 nm at 19 hours", "setting": "[4]; [10]", "result": 1.374}
    ]},
    {"molecule": "O=C([O-])c1ccccc1O.[Na+]", "note": "[sodium salicylate, Sodium salicylate]", "values": [
      {"measurement": "increase in monatin transported", "setting": "[5]; 1 mM or 2 mM sodium salicylate, 23.5 hours", "result": "seventy percent increase"},
      {"measurement": "increase in monatin efflux", "setting": "[5]; 1 mM or 2 mM sodium salicylate, 48 hours", "result": "seven percent increase"},
      {"measurement": "Monatin/dcw, 23.5 hours", "setting": "[5]; 1 mM sodium salicylate", "result": 7.41, "unit": "mg/g"},
      {"measurement": "Monatin/dcw, 48 hours", "setting": "[5]; 1 mM sodium salicylate", "result": 9.94, "unit": "mg/g"},
      {"measurement": "Monatin/dcw, 23.5 hours", "setting": "[5]; 2 mM sodium salicylate", "result": 7.54, "unit": "mg/g"},
      {"measurement": "Monatin/dcw, 48 hours", "setting": "[5]; 2 mM sodium salicylate", "result": 9.82, "unit": "mg/g"}
    ]}
  ]
}
